Measurements as given in patent US9605027B2, “Polypeptides that bound to IL-23 receptor and inhibit binding of IL-23 and cell signaling thereof” (Medical Diagnostic Laboratories, LLC, priority 2011, dated 2017).
“Also recorded” adds a separate entry of the source. Peptide text beside a SMILES is read from it.

Legend:
[1] = molecular target: T1, Recombinant human IL-23R-Fc (Homo sapiens, UniProt Q5VWK5); test: Competitive ELISA, IL-23 binding to IL-23R; conditions: for inhibition of IL-23 binding to its receptor by modified polypeptides, Competitive ELISA: procedure of Example 6, compared with parent polypeptide
T1 construct: has the protein portion between the 24 amino acid residue to 353 amino acid residue; purchased R&D Systems 1400-IR-050
T1 sequence (Q5VWK5 24-353): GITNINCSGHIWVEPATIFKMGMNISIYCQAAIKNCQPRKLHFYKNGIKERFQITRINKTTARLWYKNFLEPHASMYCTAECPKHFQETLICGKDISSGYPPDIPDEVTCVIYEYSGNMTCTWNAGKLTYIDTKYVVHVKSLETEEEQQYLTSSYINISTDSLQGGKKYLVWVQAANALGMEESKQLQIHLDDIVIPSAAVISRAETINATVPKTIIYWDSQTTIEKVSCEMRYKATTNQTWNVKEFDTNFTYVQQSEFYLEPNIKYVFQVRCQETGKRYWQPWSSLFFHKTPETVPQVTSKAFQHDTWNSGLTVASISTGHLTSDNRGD
Description: The novel polypeptides were tested for their ability to inhibit IL-23 using a Competitive ELISA. In such an assay, IL-23R/Fc fusion protein was immobilized on a solid support. In this instance, the solid support was a 96-well plate, but the support may be any support that is typically used for an ELISA. The novel polypeptide and IL-23 were allowed to compete for binding to the immobilized IL-23R/Fc fusion protein. IL-23 that bound to IL-23R-Fc was detected using biotinylated anti-p40 antibody. The bound anti-p40 antibody was detected using streptavidin-horseradish peroxidase (HRP) and a tetramethylbenzidine (TMB) substrate was added to measure peroxidase activity. The color was measured at optical density (OD) 450nm. The color intensity was directly proportional to the amount of the bound IL-23 protein. […] (See, FIG. 16.)
(§1) FIG. 12 is a schematic depiction of the Competitive ELISA. Recombinant human IL-23R-Fc (2 μg/ml) was coated onto microtiter plates as a capture reagent. IL-23 and polypeptides were added to compete for binding to the immobilized IL-23R-Fc. IL-23 that bound to IL-23R-Fc was detected using biotinylated anti-p40 antibody (1:250). The bound anti-p40 antibody was detected using streptavidin-horseradish peroxidase (HRP) (1:500) and 100 μl/well of a tetramethylbenzidine (TMB) substrate was added to measure peroxidase activity. The color was measured at optical density (OD) 450nm. (See, FIG. 12). The color intensity was directly proportional to the amount of the bound IL-23 protein.
as §1, with “Recombinant” for “FIG. 12 is a schematic depiction of the Competitive ELISA. Recombinant”, “IL-23R-Fc. 50 μg human IL-23 (Cat. No. HZ-1048) (Humanzyme, Chicago, Ill.) in the presence or absence of 100 μM peptides was added to the well and incubated at 4° C. overnight.” for “IL-23R-Fc.”, “450nm.” for “450nm. (See, FIG. 12).”

[2] = test system: IL-23 induced IL-17F in rat splenocytes; test: IL-17F mRNA expression induced by IL-23 in rat splenocytes; type: cell-based; conditions: IL-23 200 ng/ml, qRT-PCR; read-out: IC50, inhibition of IL-17F mRNA expression
Description: Sprague Dawley (SD) rat spleen was isolated and placed in 3 ml of media (RPMI 1640 with 10% FBS) in a small petri dish (35×10 mm). The rat spleen was placed on a sterile wire mesh screen using sterile forceps. The rat spleen was pushed through the screen with the plunger of a 10 ml syringe into the petri dish. Then, the suspension was mixed by gently pipetting up and down. The cells were spun down at 1,000 rpm for 10 minutes. Red blood cells were lysed by adding a Red Blood Cell lysis buffer. The cell suspension was incubated at room temperature for 5 minutes. The cells were spun down at 1,000 rpm for 10 minutes. The pelleted splenocytes were washed twice with PBS. After washing, the isolated splenocytes were re-suspended in 10 ml of culture media (RPMI 1640 with 10% FBS).
Rat splenocytes (2.5×10^6 cells/ml) were prepared and cultured in RPMI-1640 with 10% FBS for 16 hours at 37° C. Cyclic peptide no. […] The stimulation was carried out for an additional 4 hours. mRNA expression of IL-17F was measured by qRT-PCR (rat IL-17F forward primer (GGC-TCC-TGT-GAA-ACA-ACC-AT)(SEQ ID NO: 180) and rat IL-17F reverse primer (ACA-GAA-ATG-CCC-TGG-TTT-TG) (SEQ ID NO: 181). The PCR was performed under the following conditions: 95° C. for 5 minutes, 95° C. for 30 seconds, 60° C. for 30 seconds 72° C. for 30 seconds, times 40 cycles. […]

IC50 ([1]; human IL-23 / IL-23R-Fc, read-out: IC50, cell-free competitive ELISA) [nM]	IC50 [2] [nM]	SMILES	inhibition of IL-23 binding to its receptor by modified polypeptides, Competitive ELISA [1]
8.1	270	CSCC[C@@H]1NC(=O)[C@H](CCCCN)NC(=O)[C@H](C)NC(=O)[C@H](C)NC(=O)[C@H](CS)NC(=O)[C@H](CC(N)=O)NC(=O)[C@H](CCCCN)NC(=O)[C@H](CC(C)C)NC(=O)[C@H](Cc2c[nH]c3ccccc23)NC(=O)[C@H](Cc2ccc(O)cc2)NC(=O)[C@H](CC(=O)O)NC(=O)[C@H](C(C)C)NC(=O)[C@H](Cc2c[nH]c3ccccc23)NC(=O)[C@H]([C@@H](C)O)NC1=O [2HT AA] (cyclo(AAKMTWVDYWLKNC))	did not abrogate the polypeptides' ability; also recorded: best inhibitory activity
		CSCC[C@@H]1NC(=O)[C@H](C)NC(=O)[C@@H](N)CSSC[C@@H](C(=O)O)NC(=O)[C@H](CCCNC(=N)N)NC(=O)CNC(=O)[C@H](Cc2ccc(O)cc2)NC(=O)[C@H](CC(C)C)NC(=O)[C@H](Cc2c[nH]c3ccccc23)NC(=O)[C@H](Cc2ccc(O)cc2)NC(=O)[C@H](CC(=O)O)NC(=O)[C@H](CCC(N)=O)NC(=O)[C@H](Cc2c[nH]c3ccccc23)NC(=O)[C@H]([C@@H](C)O)NC1=O [23.19]	equally effective
